± gives the standard deviation of the averaged measurements.
Key:
[1] = tested on: HS-PSS; assay: drug sensitivity score (DSS, CellTiter-Glo viability, 72 h) (DSS (dimensionless)); higher = more sensitive; extreme values may be limits of the assay
Summary of the method: (§1)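 Viability of MPNST cell lines and primary human Schwann cells was read as CellTiter-Glo ATP luminescence after 72 h at 37 °C, 5% CO2, in 384-well plates seeded with 750–1000 cells per well. Each compound had been preprinted at five concentrations in 10-fold steps. Signals were scaled between vehicle and positive-control wells, duplicates averaged where present, and fitted with four-parameter logistic curves. Drug sensitivity score and relative IC50 (censored at the top concentration) come from those fits, and percent inhibition is taken at the top concentration.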

[2] = tested on: HS-Sch-2; assay: as above
Summary of the method: as §1

[3] = tested on: HSC1 (primary human Schwann cells); assay: as above
Summary of the method: as §1

[4] = tested on: HSC2 (primary human Schwann cells); assay: as above
Summary of the method: as §1

[5] = tested on: S1507-2; assay: as above
Summary of the method: as §1

[6] = tested on: S462; assay: as above
Summary of the method: as §1

[7] = tested on: ST8814; assay: as above
Summary of the method: as §1

[8] = tested on: STS26T; assay: as above
Summary of the method: as §1

[9] = tested on: YST-1; assay: as above
Summary of the method: as §1

[10] = tested on: HS-PSS; assay: drug sensitivity score (DSS, CellTox-Green cytotoxicity, 72 h) (DSS (dimensionless)); higher = more cytotoxic; extreme values may be limits of the assay
Summary of the method: (§2)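 MPNST cell lines and primary human Schwann cells were grown for 72 h at 37 °C in 384-well plates containing five 10-fold compound dilutions. CellTox-Green, added before seeding at a final 1:1000 dilution, gave fluorescence from DNA released by disrupted cells, and signals were scaled to vehicle and positive-control wells. Curves were fitted with a four-parameter logistic model. Drug sensitivity score and relative IC50 come from these fits, with IC50 censored at the top concentration.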

[11] = tested on: HSC1 (primary human Schwann cells); assay: as above
Summary of the method: as §2

[12] = tested on: HSC2 (primary human Schwann cells); assay: as above
Summary of the method: as §2

[13] = tested on: S1507-2; assay: as above
Summary of the method: as §2

[14] = tested on: ST8814; assay: as above
Summary of the method: as §2

[15] = tested on: STS26T; assay: as above
Summary of the method: as §2

[16] = tested on: HS-PSS; assay: % inhibition of CellTiter-Glo viability at highest tested concentration (72 h), relative to DMSO and benzethonium chloride controls; higher = more inhibition
Summary of the method: as §1

[17] = tested on: HS-Sch-2; assay: as above
Summary of the method: as §1

[18] = tested on: HSC1 (primary human Schwann cells); assay: as above
Summary of the method: as §1

[19] = tested on: HSC2 (primary human Schwann cells); assay: as above
Summary of the method: as §1

[20] = tested on: S1507-2; assay: as above
Summary of the method: as §1

[21] = tested on: S462; assay: as above
Summary of the method: as §1

[22] = tested on: ST8814; assay: as above
Summary of the method: as §1

[23] = tested on: STS26T; assay: as above
Summary of the method: as §1

[24] = tested on: YST-1; assay: as above
Summary of the method: as §1

| SMILES | drug sensitivity score [1] | drug sensitivity score [2] | drug sensitivity score [3] | drug sensitivity score [4] | drug sensitivity score [5] | drug sensitivity score [6] | drug sensitivity score [7] | drug sensitivity score [8] | drug sensitivity score [9] | drug sensitivity score [10] | drug sensitivity score [11] | drug sensitivity score [12] | drug sensitivity score [13] | drug sensitivity score [14] | drug sensitivity score [15] | % inhibition [16] [%] | % inhibition [17] [%] | % inhibition [18] [%] | % inhibition [19] [%] | % inhibition [20] [%] | % inhibition [21] [%] | % inhibition [22] [%] | % inhibition [23] [%] | % inhibition [24] [%] |
| --- | --- | --- | --- | --- | --- | --- | --- | --- | --- | --- | --- | --- | --- | --- | --- | --- | --- | --- | --- | --- | --- | --- | --- | --- |
| Nc1ccn([C@@H]2O[C@H](CO)[C@@H](O)[C@@H]2O)c(=O)n1 [Cytarabine] (max concentration tested 10000 nM) | 10.2 | 9.14 | 10.8 | 14 | 6.29 ± 0.62 | 20 ± 0.39 | 12.1 | 13.8 | 13.2 | 5.69 | 5.58 | 4.6 | 0.68 ± 0.19 | 7.9 | 5.45 | 65.1 | 69.3 | 65.1 | 80.3 | 66.4 ± 5.8 | 96.4 ± 1.9 | 90.2 | 74.7 | 69.2 |
| CCN(CC)CCOc1ccc(/C(=C(/Cl)c2ccccc2)c2ccccc2)cc1 [Clomifene] (max concentration tested 10000 nM) | 6.39 | 5.21 | 2.36 | 6.36 | 6.57 ± 0.14 | 5.36 ± 0.27 | 6.53 | 6.27 | 1.77 | 5.71 | 0 | 7.92 | 4.48 ± 1.9 | 6.68 | 6.15 | 87.8 | 98.5 | 25.9 | 91.5 | 95.46 ± 0.71 | 77.6 ± 2.6 | 96.9 | 92.4 | 44.2 |
| CN1CCN(c2ccc3nc(-c4c(N)c5c(F)cccc5[nH]c4=O)[nH]c3c2)CC1 [Dovitinib] (max concentration tested 10000 nM) | 0 | 0.84 | 1.65 | 0.382 | 3.54 ± 3.6 | 0.655 ± 0.32 | 0 | 0.0001 | 0.32 | 0 | 0 | 0 | 0 | 0 | 0 | -2.95 | 22.3 | 19.1 | 16.2 | 21.7 ± 2.2 | 18.1 ± 0.51 | -2.1 | 10.4 | 17.6 |
| Cc1c(N)nc([C@H](CC(N)=O)NC[C@H](N)C(N)=O)nc1C(=O)N[C@H](C(=O)N[C@H](C)[C@@H](O)[C@H](C)C(=O)N[C@H](C(=O)NCCc1nc(-c2nc(C(=O)NCCC[S+](C)C)cs2)cs1)[C@@H](C)O)[C@@H](O[C@@H]1O[C@@H](CO)[C@@H](O)[C@H](O)[C@@H]1O[C@H]1O[C@H](CO)[C@@H](O)[C@H](OC(N)=O)[C@@H]1O)c1c[nH]cn1 [Bleomycin] (max concentration tested 10000 nM) | 5.94 | 8.47 | 6.33 | 8.81 | 2.36 ± 0.43 | 5 ± 1.1 | 4.1 | 5.46 | 10.9 | 0.34 | 0 | 1.66 | 1.29 ± 0.61 | 2.35 | 4.43 | 53.2 | 72.1 | 50.4 | 54.5 | 29.9 ± 7.5 | 68.4 ± 1.7 | 46.4 | 62.1 | 79.5 |
| C[C@]12C=CC(=O)C=C1CC[C@@H]1[C@@H]2[C@@H](O)C[C@@]2(C)[C@H]1CC[C@]2(O)C(=O)CO [Prednisolone] (max concentration tested 10000 nM) | 0 | 0 | 0 | 0 | 0.89 ± 1.3 | 0 | 3.88 | 0 | 0.25 | 0 | 0 | 0 | 0 | 0 | 0 | -16.2 | 6 | 6.78 | -7.75 | 11.2 ± 15 | -0.231 ± 7 | 15.6 | 3.25 | 12 |
| CS(=O)(=O)c1ccc(C2=C(c3ccccc3)C(=O)OC2)cc1 [Rofecoxib] (max concentration tested 10000 nM) | 0 | 0 | 0 | 0 | 0 | 0 | 0 | 0 | 0 | 0 | 0 | 0 | 0 | 0 | 0 | -0.36 | -5.42 | 2.15 | -0.797 | 3.17 ± 6.5 | -1.92 ± 0.69 | 3.44 | -0.415 | 1.11 |

Source: the supplement of paper PMC5579334
